Patent publication US20220265612A1, “CARDIAC SARCOMERE INHIBITOR ORAL FORMULATIONS” (Cytokinetics, Inc., priority 2019, published 2022)

Assays:
[1] = tested on: rat cardiac contractility; experiment: Echocardiography assessment of cardiac contractility, oral gavage; type: in vivo, Sprague Dawley rats; conditions: oral dosing, estimated value
Protocol: Assessment of in vivo cardiac function by echocardiography was performed in male Sprague Dawley rats under isoflurane (1-3%) anesthesia. […] In vivo fractional shortening was determined by M-mode image analysis with the following calculation: ((End diastolic diameter−end systolic diameter)/end diastolic diameter×100). […] During infusion, M-mode images were taken at 5 minute intervals. The infusion stopped when fractional shortening reached up to a 60% reduction from baseline. […] Data was reported as an estimated IC50 value, which is the concentration at which fractional shortening is 50% of the pre-dose baseline contractility.
For oral dosing studies, three pre-dose baseline M-Mode images were taken at 1 minute intervals prior to compound administration. […] Rats were lightly anesthetized for M-Mode echocardiography measurements at select time points over a 24 hour period. Different dose levels were evaluated for (R)-N-(5-(5-ethyl-1,2,4-oxadiazol-3-yl)-2,3-dihydro-1H-inden-1-yl)-1-methyl-1H-pyrazole-4-carboxamide. The compound effect on cardiac fractional shortening at the highest dose evaluated is presented in Table D as a percent reduction of baseline fractional shortening (=100%).

[2] = biological target: T1, bovine cardiac myofibrils (Bos taurus, UniProt Q9BE39); experiment: Skinned bovine cardiac myofibril ATPase assay (PK/LDH-coupled); type: biochemical; conditions: myofibril ATPase at Ca2+ giving 75% activation (pCa75)
T1 construct: full-length cardiac myosin in the context of the native sarcomere; from tissue; host or cells: bovine cardiac left ventricular tissue, detergent-skinned (Triton X-100) myofibrils
Source text: Bovine cardiac myofibrils were obtained by homogenizing bovine cardiac left ventricular tissue in the presence of a detergent such as triton X-100. Such treatment removes membranes and a majority of the soluble cytoplasmic proteins but leaves intact the cardiac sarcomeric acto-myosin apparatus. Myofibril preparations retain the ability to hydrolyze ATP in a Ca^2+ regulated manner. […] This assay regenerates myosin-produced ADP into ATP by oxidizing NADH, producing an absorbance change at 340 nm.

T1 sequence (Q9BE39 whole entry): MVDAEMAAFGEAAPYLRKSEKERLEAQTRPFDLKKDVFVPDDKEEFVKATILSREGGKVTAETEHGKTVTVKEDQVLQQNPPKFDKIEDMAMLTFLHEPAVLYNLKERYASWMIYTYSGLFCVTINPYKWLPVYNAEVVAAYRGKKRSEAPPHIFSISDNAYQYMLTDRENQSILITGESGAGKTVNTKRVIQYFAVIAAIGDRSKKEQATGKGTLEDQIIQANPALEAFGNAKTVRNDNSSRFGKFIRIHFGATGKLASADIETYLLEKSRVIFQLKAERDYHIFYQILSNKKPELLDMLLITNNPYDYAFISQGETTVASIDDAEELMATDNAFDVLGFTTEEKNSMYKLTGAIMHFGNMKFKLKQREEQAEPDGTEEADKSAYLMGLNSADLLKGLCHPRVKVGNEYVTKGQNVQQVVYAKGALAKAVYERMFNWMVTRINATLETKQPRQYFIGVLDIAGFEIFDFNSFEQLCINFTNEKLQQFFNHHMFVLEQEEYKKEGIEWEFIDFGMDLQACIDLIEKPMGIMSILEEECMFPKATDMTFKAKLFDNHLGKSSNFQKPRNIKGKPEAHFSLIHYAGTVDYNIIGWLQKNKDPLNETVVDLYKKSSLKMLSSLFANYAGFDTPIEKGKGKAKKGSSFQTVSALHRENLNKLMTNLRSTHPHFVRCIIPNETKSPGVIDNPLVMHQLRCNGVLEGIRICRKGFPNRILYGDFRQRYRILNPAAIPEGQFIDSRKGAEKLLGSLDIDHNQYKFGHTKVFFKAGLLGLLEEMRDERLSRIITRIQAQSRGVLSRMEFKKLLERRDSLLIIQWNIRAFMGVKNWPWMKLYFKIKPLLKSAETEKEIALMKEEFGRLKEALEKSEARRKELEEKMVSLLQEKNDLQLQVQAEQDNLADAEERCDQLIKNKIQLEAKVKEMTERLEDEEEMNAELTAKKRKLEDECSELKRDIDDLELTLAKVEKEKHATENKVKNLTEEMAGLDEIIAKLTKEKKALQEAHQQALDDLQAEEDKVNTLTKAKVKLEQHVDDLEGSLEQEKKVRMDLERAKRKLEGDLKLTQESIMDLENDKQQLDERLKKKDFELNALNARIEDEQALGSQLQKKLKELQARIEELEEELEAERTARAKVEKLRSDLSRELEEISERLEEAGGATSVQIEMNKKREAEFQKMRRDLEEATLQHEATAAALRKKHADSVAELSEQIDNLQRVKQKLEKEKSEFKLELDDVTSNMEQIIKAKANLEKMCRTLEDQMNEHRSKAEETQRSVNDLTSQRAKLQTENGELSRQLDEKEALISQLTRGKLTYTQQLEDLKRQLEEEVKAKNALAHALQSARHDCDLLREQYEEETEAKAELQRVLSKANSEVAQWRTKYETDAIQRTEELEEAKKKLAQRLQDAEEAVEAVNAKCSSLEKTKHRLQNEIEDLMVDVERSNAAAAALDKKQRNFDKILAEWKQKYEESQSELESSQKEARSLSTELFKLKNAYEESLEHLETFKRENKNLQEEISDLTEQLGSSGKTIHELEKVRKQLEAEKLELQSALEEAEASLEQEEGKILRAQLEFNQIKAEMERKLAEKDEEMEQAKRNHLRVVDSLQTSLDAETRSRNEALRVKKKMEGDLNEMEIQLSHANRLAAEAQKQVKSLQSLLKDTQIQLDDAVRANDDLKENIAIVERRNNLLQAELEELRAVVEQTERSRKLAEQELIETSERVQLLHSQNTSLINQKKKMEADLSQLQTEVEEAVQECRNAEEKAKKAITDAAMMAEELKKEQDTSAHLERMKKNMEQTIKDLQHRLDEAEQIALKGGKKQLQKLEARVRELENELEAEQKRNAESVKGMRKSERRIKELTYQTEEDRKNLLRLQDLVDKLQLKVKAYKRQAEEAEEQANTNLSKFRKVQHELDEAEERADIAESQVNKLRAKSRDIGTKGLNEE
T1 sequence (P85100 whole entry partner): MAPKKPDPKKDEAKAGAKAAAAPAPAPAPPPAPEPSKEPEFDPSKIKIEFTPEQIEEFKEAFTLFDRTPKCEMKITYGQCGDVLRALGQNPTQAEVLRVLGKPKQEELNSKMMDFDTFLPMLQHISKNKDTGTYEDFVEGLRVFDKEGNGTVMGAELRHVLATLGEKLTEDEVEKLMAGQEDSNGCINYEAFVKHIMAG
T1 sequence (Q3SZE5 whole entry partner): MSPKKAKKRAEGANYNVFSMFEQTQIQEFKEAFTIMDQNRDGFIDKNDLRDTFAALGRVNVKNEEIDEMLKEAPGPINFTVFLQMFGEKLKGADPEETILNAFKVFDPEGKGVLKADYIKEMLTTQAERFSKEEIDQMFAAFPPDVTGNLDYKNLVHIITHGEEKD

CDMF75 IC15 [2]: 400 nM
Compound: CCc1nc(-c2ccc3c(c2)CC[C@H]3NC(=O)c2cnn(C)c2)no1 [(R)-N-(5-(5-ethyl-1,2,4-oxadiazol-3-yl)-2,3-dihydro-1H-inden-1-yl)-1-methyl-1H-pyrazole-4-carboxamide]
IC10, plasma concentration for fractional shortening [1]: 800 nM
